Data set [1] has as its system total cholesterol in the serum. Kind of data set: Evaluation of serum lipid level: total cholesterol in serum of beagle dogs after oral administration for 11 days (CEH-COD-POD method). As to conditions: oral capsule once daily, pravastatin 2 mg/kg, mean of 5 dogs.
Text: (§1) Pravastatin with a purity of 99.4%, manufactured at Sankyo Co. Ltd., was employed in the study.
(§2) Male beagle dogs were purchased at 5 months old from Covance Research Products Inc., as the test animals, and were used after quarantine and acclimatization periods of approximately 1 month.
(§3) The required amounts of pravastatin or each combination drug as calculated based on the body weight of each animal were placed in a gelatin capsule (½-ounce volume) purchased from TORPAC Co. Capsules filled with pravastatin were stored in a cold room and with combination drugs at room temperature until use.
(§4) Combination drugs were put in identical geltin capsules.
(§5) Capsules filled with pravastatin or combination drugs were orally administered once daily between 9:00 and 12:30 to the test animals. All test animals were fasted 2-3 hr prior to administration. The administration period was 11 successive days.
(§6) Approximately 10 ml of blood were collected from the cephalic vein on 14 and 7 days before administration (2 and one week before the drug administration) and 4, 8, and 12 days after administration of the capsules. The animals were fasted for approximate 18 hr prior to blood collection. Collected blood was placed into test tubes and left for 0.5-1 hr at room temperature. The test tubes were then centrifuged at 3,000 rpm for 10 min to isolate serum. Levels of total cholesterol and ALP in the serum were determined by the CEH-COD-POD and Bessey-Lowry methods, respectively.
(§7) For quantitative analyses, an automatic analyzer, Monarch (Instrumentation Laboratory), was used.
(§8) Each value represents the mean value calculated from 5 animals.
In data set [2] the test system is ALP in the serum. As to conditions: oral capsule once daily, pravastatin 2 mg/kg, riboflavin acetate 6 mg/kg, relative to pre-administration average (100), mean of 5 dogs.
Text: as §1, §2, §3, §4, §5, §6, §7, §8
The mark [3] stands for this setting: d-α-tocopherol acetate 10 mg/kg, ascorbic acid 50 mg/kg, relative to pre-administration average (100).
Where [4] appears, read: d-α-tocopherol acetate 10 mg/kg, relative to pre-administration average (100).
Where [5] appears, read: riboflavin acetate 6 mg/kg, relative to pre-administration average (100).
[6] abbreviates: ascorbic acid 50 mg/kg, relative to pre-administration average (100).

From patent US6916849B2, “Compositions for improving lipid content in the blood” (priority 2000, dated 2005) come the findings set out here.

Turning to `CC(=O)Oc1c(C)c(C)c2c(c1C)CC[C@@](C)(CCC[C@H](C)CCC[C@H](C)CCCC(C)C)O2` [d-α-tocopherol acetate], in data set [1] (setting [3]), the “Total Cholesterol Level in Serum After Administration, 4 days” value (“Total Cholesterol Level … 4 days” for short) worked out at 97.8; the “Total Cholesterol Level in Serum After Administration, 8 days” value (“Total Cholesterol Level … 8 days” for short) is 96.4; the “Total Cholesterol Level in Serum After Administration, 12 days” value (“Total Cholesterol Level … 12 days” for short) was found to be 96.1. Further, in data set [1] (setting [4]), the “Total Cholesterol Level … 4 days” value is 96.3; the “Total Cholesterol Level … 8 days” value is 92.8; the “Total Cholesterol Level … 12 days” value stood at 95.9.
For the compound Riboflavin acetate, the “ALP level (after administration), 4 days” value in data set [2] (4 days) is on record as 98.1. Besides, the “ALP level (after administration), 8 days” value in data set [2] (8 days) came out at 98.8. The “ALP level (after administration), 12 days” value in data set [2] (12 days) is 93.9. Also, the “Total Cholesterol Level … 4 days” value in data set [1] (riboflavin acetate 6 mg/kg, relative to average level 2 and 1 week before administration (100)) turned out to be 103.9. Moreover, in data set [1] (setting [5]), the “Total Cholesterol Level … 8 days” value was determined as 101.6 and the “Total Cholesterol Level … 12 days” value amounted to 100.5.
On to `O=C1O[C@H]([C@@H](O)CO)C(O)=C1O` [Ascorbic acid, ascorbic acid], for which, in data set [1] (setting [6]), the “Total Cholesterol Level … 4 days” value is recorded as 98.7; the “Total Cholesterol Level … 8 days” value is given as 98.2; the “Total Cholesterol Level … 12 days” value is recorded as 103.4.
